Earlier results on eight compounds are cited in article PMC8513935.

Molecules are shown by their SMILES.

The nature of data set [1]: log P octanol/water from commercial databases, averaged (the ESI). Particulars: Octanol (wet), 25 C.
A short description of data set [2]: experimental, compiled by the authors from the literature (the ESI cites the sources).
Data set [3] can be described thus: derived by the authors as gas->solvent minus gas->water (a hypothetical dry solvent; the ESI), not a two-phase measurement.

With `CCCCCl`, the log K of transfer, water to solvent in data set [1] was 2.64 log10 K; in data set [3] (1,2-Dichloroethane, 25 C), 3.13 log10 K; in data set [3] (2-Methylpropan-1-ol, 25 C), 2.61 log10 K; in data set [3] (2-Methylpropan-2-ol, 25 C), 2.59 log10 K; in data set [3] (Acetone, 25 C) it was 3 log10 K; in data set [3] (Butan-2-ol, 25 C) it was 2.61 log10 K. Moreover, the log K of transfer, water to solvent in data set [3] (CCl4, 25 C) was 3.04 log10 K; in data set [3] (Chlorobenzene, 25 C), 3.07 log10 K; in data set [3] (Decan-1-ol, 25 C) it was 2.57 log10 K; in data set [3] (Di-n-butyl ether, 25 C) it was 2.89 log10 K; in data set [3] (Diethyl Ether, 25 C) it was 3.09 log10 K; in data set [3] (Hexadecane, 25 C), 2.6 log10 K. Moreover, the log K of transfer, water to solvent in data set [3] (Hexane, 25 C) was 2.83 log10 K; in data set [3] (Octan-1-ol(dry), 25 C), 2.6 log10 K; in data set [3] (Propan-1-ol, 25 C), 2.51 log10 K. Also, the log K of transfer, gas to solvent in data set [2] (1,2-Dichloroethane, 25 C) was 3.25 log10 K; in data set [2] (2-Methylpropan-1-ol, 25 C), 2.73 log10 K; in data set [2] (2-Methylpropan-2-ol, 25 C) it was 2.71 log10 K; in data set [2] (Butan-2-ol, 25 C), 2.73 log10 K; in data set [2] (CCl4, 25 C) it was 3.16 log10 K; in data set [2] (Chlorobenzene, 25 C), 3.19 log10 K. Besides, the log K of transfer, gas to solvent in data set [2] (Decan-1-ol, 25 C) was 2.69 log10 K; in data set [2] (Di-n-butyl ether, 25 C), 3.01 log10 K; in data set [2] (Diethyl Ether, 25 C), 3.21 log10 K; in data set [2] (Hexadecane, 25 C), 2.72 log10 K; in data set [2] (Hexane, 25 C), 2.95 log10 K; in data set [2] (Octan-1-ol, 25 C), 2.72 log10 K. The log K of transfer, gas to solvent was 2.63 log10 K in data set [2] (Propan-1-ol, 25 C); 3.12 log10 K in data set [2] (Propanone, 25 C); 0.12 log10 K in data set [2] (Water, 25 C).

In the case of `CCc1ccc(O)cc1`, the log K of transfer, water to solvent in data set [1] was 2.58 log10 K; in data set [3] (1,2-Dichloroethane, 25 C), 1.67 log10 K; in data set [3] (CCl4, 25 C), 0.86 log10 K; in data set [3] (Chlorobenzene, 25 C) it was 1.3 log10 K; in data set [3] (Chloroform, 25 C), 1.47 log10 K; in data set [3] (Dichloromethane, 25 C), 1.66 log10 K. Besides, the log K of transfer, water to solvent in data set [3] (Hexadecane, 25 C) is 0.237 log10 K; in data set [3] (Hexane, 25 C) it was 0.29 log10 K; in data set [3] (Perfluoroalkane, 25 C), -1.33 log10 K. In addition, the log K of transfer, gas to solvent in data set [2] (1,2-Dichloroethane, 25 C) is 6.17 log10 K; in data set [2] (CCl4, 25 C) it was 5.36 log10 K; in data set [2] (Chlorobenzene, 25 C), 5.8 log10 K; in data set [2] (Chloroform, 25 C), 5.97 log10 K; in data set [2] (Dichloromethane, 25 C) it was 6.16 log10 K; in data set [2] (Hexadecane, 25 C), 4.73 log10 K. For the same compound, the log K of transfer, gas to solvent in data set [2] (Hexane, 25 C) is 4.79 log10 K; in data set [2] (Perfluoroalkane, 25 C), 3.17 log10 K; in data set [2] (Water, 25 C) it was 4.5 log10 K.

For the compound `CC1CCCC1`, the log K of transfer, water to solvent was 3.37 log10 K in data set [1]; 3.74 log10 K in data set [3] (Heptan-1-ol, 25 C); 4.07 log10 K in data set [3] (Hexadecane, 25 C); 3.74 log10 K in data set [3] (Pentan-1-ol, 25 C). In addition, the log K of transfer, gas to solvent in data set [2] (Heptan-1-ol, 25 C) is 2.57 log10 K; in data set [2] (Hexadecane, 25 C), 2.91 log10 K; in data set [2] (Pentan-1-ol, 25 C) it was 2.57 log10 K; in data set [2] (Water, 25 C), -1.17 log10 K.

Regarding `C=CCC`, the log K of transfer, water to solvent is 2.4 log10 K in data set [1]; 2.46 log10 K in data set [3] (2-Methylpropan-1-ol, 25 C); 2.5 log10 K in data set [3] (2-Methylpropan-2-ol, 25 C); 2.47 log10 K in data set [3] (3-Methylbutan-1-ol, 25 C); 2.48 log10 K in data set [3] (Butan-1-ol, 25 C); 2.47 log10 K in data set [3] (Butan-2-ol, 25 C). Besides, the log K of transfer, water to solvent in data set [3] (CCl4, 25 C) is 2.84 log10 K; in data set [3] (Hexadecane, 25 C) it was 2.54 log10 K; in data set [3] (Hexane, 25 C), 2.83 log10 K; in data set [3] (Pentan-1-ol, 25 C), 2.48 log10 K; in data set [3] (Propan-1-ol, 25 C), 2.48 log10 K; in data set [3] (Propan-2-ol, 25 C), 2.46 log10 K. The log K of transfer, gas to solvent in data set [2] (2-Methylpropan-1-ol, 25 C) was 1.45 log10 K; in data set [2] (2-Methylpropan-2-ol, 25 C), 1.49 log10 K; in data set [2] (3-Methylbutan-1-ol, 25 C), 1.46 log10 K; in data set [2] (Butan-1-ol, 25 C), 1.47 log10 K; in data set [2] (Butan-2-ol, 25 C), 1.46 log10 K; in data set [2] (CCl4, 25 C) it was 1.83 log10 K. For the same compound, the log K of transfer, gas to solvent was 1.53 log10 K in data set [2] (Hexadecane, 25 C); 1.83 log10 K in data set [2] (Hexane, 25 C); 1.47 log10 K in data set [2] (Pentan-1-ol, 25 C); 1.47 log10 K in data set [2] (Propan-1-ol, 25 C); 1.45 log10 K in data set [2] (Propan-2-ol, 25 C); -1.01 log10 K in data set [2] (Water, 25 C).

With `CCCCl`, the log K of transfer, water to solvent in data set [1] is 2.04 log10 K; in data set [3] (1,2-Dichloroethane, 25 C), 2.47 log10 K; in data set [3] (Butan-1-ol, 25 C), 2.08 log10 K; in data set [3] (Butanone, 25 C), 2.46 log10 K; in data set [3] (CCl4, 25 C), 2.47 log10 K; in data set [3] (Chloroform, 25 C), 2.41 log10 K. Besides, the log K of transfer, water to solvent in data set [3] (Cyclohexanone, 25 C) was 2.45 log10 K; in data set [3] (Hexadecane, 25 C), 1.96 log10 K; in data set [3] (Hexane, 25 C), 2.23 log10 K; in data set [3] (Octan-1-ol(dry), 25 C), 2 log10 K. Also, the log K of transfer, gas to solvent in data set [2] (1,2-Dichloroethane, 25 C) is 2.71 log10 K; in data set [2] (Butan-1-ol, 25 C), 2.32 log10 K; in data set [2] (Butanone, 25 C), 2.7 log10 K; in data set [2] (CCl4, 25 C), 2.71 log10 K; in data set [2] (Chloroform, 25 C), 2.65 log10 K; in data set [2] (Cyclohexanone, 25 C), 2.69 log10 K. Further, the log K of transfer, gas to solvent in data set [2] (Hexadecane, 25 C) was 2.2 log10 K; in data set [2] (Hexane, 25 C), 2.47 log10 K; in data set [2] (Octan-1-ol, 25 C), 2.24 log10 K; in data set [2] (Water, 25 C) it was 0.24 log10 K.

Consider `CCCCCCCCCC`, for which the log K of transfer, water to solvent in data set [1] is 5.88 log10 K; in data set [3] (Butanone, 25 C), 6.74 log10 K; in data set [3] (Ethanol, 25 C), 6.24 log10 K; in data set [3] (Hexadecane, 25 C) it was 7 log10 K; in data set [3] (Hexane, 25 C), 7.34 log10 K. The log K of transfer, gas to solvent in data set [2] (Butanone, 25 C) was 4.42 log10 K; in data set [2] (Ethanol, 25 C) it was 3.92 log10 K; in data set [2] (Hexadecane, 25 C), 4.68 log10 K; in data set [2] (Hexane, 25 C) it was 5.02 log10 K; in data set [2] (Water, 25 C) it was -2.32 log10 K.

Consider `C1CCCC1`, for which the log K of transfer, water to solvent in data set [1] is 3 log10 K; in data set [3] (Ethanol, 25 C) it was 2.92 log10 K; in data set [3] (Heptan-1-ol, 25 C), 3.15 log10 K; in data set [3] (Hexadecane, 25 C), 3.36 log10 K; in data set [3] (Hexane, 25 C), 3.59 log10 K; in data set [3] (Methanol, 25 C), 2.8 log10 K. For the same compound, the log K of transfer, water to solvent in data set [3] (Propan-1-ol, 25 C) is 3 log10 K; in data set [3] (Propan-2-ol, 25 C), 3 log10 K. The log K of transfer, gas to solvent was 2.04 log10 K in data set [2] (Ethanol, 25 C); 2.27 log10 K in data set [2] (Heptan-1-ol, 25 C); 2.48 log10 K in data set [2] (Hexadecane, 25 C); 2.71 log10 K in data set [2] (Hexane, 25 C); 1.92 log10 K in data set [2] (Methanol, 25 C); 2.12 log10 K in data set [2] (Propan-1-ol, 25 C). The log K of transfer, gas to solvent in data set [2] (Propan-2-ol, 25 C) is 2.12 log10 K; in data set [2] (Water, 25 C), -0.88 log10 K.

On to `O=C1CCCCN1`, for which the log K of transfer, water to solvent was -0.465 log10 K in data set [1] and -2.79 log10 K in data set [3] (Hexadecane, 25 C). The log K of transfer, gas to solvent in data set [2] (Hexadecane, 25 C) was 4.18 log10 K; in data set [2] (Water, 25 C), 6.97 log10 K.
